Measured values from US20020114804A1, “A METHOD OF TREATING INFECTION OF SUTURES AND PROSTHETIC DEVICES” (priority 1996, published 2002).

How the values were obtained:
Assay type in all cases: cell-based, human
PMNs [1] = experiment: PMN migration through Matrigel or Matrigel/tenascin coated filters; details: for Inhibition of chemoattractant-stimulated PMN migration: Matrigel-coated filters, depending on chemoattractant, human tenascin 5 μg
Protocol: Polymorphonuclear leukocytes (PMN), were prepared as described (7) from heparinized human blood by sedimentation on Ficoll-Hypaque gradients. Contaminating red blood cells were removed by hypotonic lysis. The purity of PMN isolated by this method was >95% as determined by Wright-Giemsa staining.
(§1) Cell culture inserts containing polyethylene terephthalate filters, 8-μm pore size (Becton-Dickinson), were overlaid with 0.1 ml of Matrigel (20-25 μg protein/filter) (Collaborative Research, Bedford, Mass.), and incubated at room temperature until they dried. These Matrigel-coated filters were washed with phosphate buffered saline containing 1.0 mM Mg^2+ and 1.0 mM Ca^2+ (PBS). 0.1 ml of a PBS solution (pH 7.2) containing the indicated amount of purified chick brain tenascin was added to some of the inserts. The filters were incubated at room temperature until they dried. These protein-coated filters were washed again with PBS and used within 12 h for cell migration studies. To prepare collagen I-coated inserts, filters were coated with rat tail collagen I (ICN Biochemicals, Costa, Mesa, Calif.) (400 μg/ml in PBS), by adding 0.1 ml of this solution to an insert and incubating the inserts at room temperature for 24 h. Some of these collagen I-coated filters were then incubated with tenascin as described above.
PMN: 250 μl of PBS [supplemented with 5.5 mM glucose and 0.1% human serum albumin (HSA) (PBSG-HSA)] containing 1×10^6 PMNs was placed in the upper compartment of each insert. 250 μl of PBSG-HSA with or without chemoattractant, as indicated, was added to the bottom compartment. The inserts were incubated for about 4 h at 37° C. in a humidified atmosphere containing 95% air/5% CO2. […] The medium in the lower compartment was collected and its content of PMN determined using a Coulter Counter, as described in Example 1.

PMNs [2] = experiment: PMN migration through fibrin gels in Boyden-type chemotaxis chambers
Protocol: (§2) Becton-Dickinson cell culture inserts (pore sizes 3 or 8 μm: Franklin Lakes, N.J.) were overlaid with the following proteins:
Fibrin gels: 1 Unit of thrombin (a gift from Dr. John Fenton, Albany Medical College, Albany, N.Y.), in 5 μl of PBS was added first to each insert. 0.1 ml phosphate buffered saline supplemented with Ca^2+ and Mg^2+ (PBS) containing 100 μg commercial grade fibrinogen (Calbiochem. Inc., San Diego, Calif.) or purified fibrinogen [a gift from Dr. Jeffery Weitz, (MacMaster University, Hamilton, On.)] was then placed into each 8.2 mm diameter insert on top of the thrombin. The mixture was incubated at 37° C. for 5 min to allow fibrin gel formation (determined by visual inspection). 1 Unit PPACK (Calbiochem Inc., San Diego, Calif.; 10^−5 M final concentration), in 100 μl medium was added to each insert to inhibit thrombin, and gels were washed with 250 μl PBS to remove inactivated thrombin. The fibrin gels formed were about 1 mm thick as measured under a dissecting microscope.
(§3) PMNs were prepared from fresh heparinized blood from healthy adult volunteers by sedimentation on Ficoll-Hypaque gradients. Contaminating red blood cells were removed by hypotonic lysis, as described (7). The purity of PMN isolated by this method is >95% as determined by Wright-Giemsa staining (7). 10^6 PMNs in 250 μl of PBS supplemented with 5.5 mM glucose and 0.1% human serum albumin (PBSG-HSA), were placed in the upper compartment of each insert and incubated for 0-6 hrs at 37° C. in a humidified atmosphere containing 95% air/5% CO2. At the times and concentrations specified, chemoattractants/cytokines were added to the top or bottom compartment in 250 μl of PBSG-HSA. At the end of the incubation, the chambers were shaken to dislodge PMNs from the lower surface of the inserts. The medium in each lower compartment was collected and its content of PMNs was determined using either a Coulter Counter or a hemocytometer. Both methods gave similar results. Counts are expressed as the average number of PMNs that migrated into the lower compartment. Unless otherwise indicated, all values reported are the average of six data points from at least 3 independent experiments.

PMNs [3] = experiment: PMN migration through gels of Matrigel or collagen IV; details: added to the bottom chamber
Protocol: as §2
Collagen type IV and Matrigel matrices: 0.1 ml PBS containing 100 μg human placental collagen IV (Fluka Chemical Corp., Ronkonkoma, N.Y.), or 80 μg of reconstituted basement membrane proteins (Matrigel, Collaborative Research, Bedford, Mass.), was placed into each insert and allowed to gel at room temperature for 24 hrs.
as §3, with “At the end of the incubation, the chambers were shaken to dislodge PMNs from the lower surface of the inserts.” left out, “Both methods gave similar results.” left out, “Unless otherwise indicated, all values reported are the average of six data points from at least 3 independent experiments.” left out

monocytes [4] = experiment: Monocyte migration through Matrigel or Matrigel/tenascin coated filters; details: for Inhibition of chemoattractant-stimulated monocyte migration: Matrigel-coated filters, depending on chemoattractant, human tenascin 5 μg
Description: Mononuclear cells were isolated by centrifugation of heparinized human blood on Ficoll-Hypaque gradients as described (65, 66). The mononuclear cell fraction was resuspended in RMPI 1640 medium supplemented with 10% pooled human serum or autologous serum and used immediately for monocyte migration studies. For some experiments, monocytes were obtained by centrifugation of whole blood or of white blood cells concentrated from a unit of blood (leukopak), on Nycodenz gradients as described (39). More than 90% of the nucleated cells obtained by this Nycodenz method were monocytes, as assessed by their ability to phagocytose IgG-coated red blood cells.
(§4) Cultured monocytes were prepared by allowing 10^7 total mononuclear cells, suspended in 10 ml of RMPI 1640 medium supplemented with 10% pooled human serum (1640+HS), or 10% autologous serum (1640+AS), to adhere to Falcon T-150 tissue culture Petri dishes for 2 h at 37° C. Non-adherent cells were removed by washing, leaving an adherent cell population consisting of greater than 98% monocytes as measured by their capacity to phagocytose IgG coated sheep red blood cells. For migration studies, monocytes were maintained in culture for 24 h in RPMI 1640+HS or AS, and detached from the dishes by gentle pipetting of 10 ml of ice cold phosphate buffered saline (without Ca^2+ or Mg^2+) containing 1.0 mM EDTA. The cells recovered were resuspended in RPMI-1640+HS as described (65).
as §1
Monocytes: Cell culture inserts were placed in 16 mm wells containing 0.5 mls of RPMI-1640+HS or AS in the presence or absence of a chemoattractant. 0.5 ml of RPMI-1640+HS or AS serum containing between 2-10×10^5 mononuclear phagocytes was added to the upper chamber of the inserts and the inserts were placed in a humidified CO2 incubator at 37° C. After 24 h the medium in the lower chamber was recovered and its cell content assayed using either a Coulter counter or a hemocytometer. […] Cell counts reported are the average number of cells recovered from the medium in the lower compartment of chemotaxis chambers. Over 90% of the cells in the lower chamber were identified as monocytes based on their morphology, their capacity to phagocytose IgG coated sheep red cells, and their staining with fluorescein-conjugated anti α,β monoclonal antibody (Oncogene Sciences, Uniondale, N.Y.). Unless otherwise indicated, all values are the average of duplicate samples run in parallel in a representative experiment. Each experiment was repeated at least three times with similar results.

PMNs [5] = experiment: PMN migration through filters coated with fibrinogen or fibronectin
Protocol: as §2
Fibrinogen or fibronectin: 0.1 ml of PBS containing 100 μg/ml fibrinogen or fibronectin (New York Blood Center, New York, N.Y.), was placed into each insert (pore size 3 μm). Inserts were incubated at 37° C. for 60 min and washed with 250 μl of PBS. Filters coated with fibrinogen or fibronectin were diffusely fluorescent as visualized by epifluorescent microscopy when incubated with the corresponding antibody [fluorescein-labeled anti-fibrinogen, or anti-fibronectin monoclonal antibodies (Cappel, Malvern, Pa.)], while uncoated filters, or filters incubated with fluorescein-labeled antibody of the opposite specificity, were not.
PMNs were prepared from fresh heparinized blood from healthy adult volunteers by sedimentation on Ficoll-Hypaque gradients. Contaminating red blood cells were removed by hypotonic lysis, as described (7). The purity of PMN isolated by this method is >95% as determined by Wright-Giemsa staining (7). […] The medium in each lower compartment was collected and its content of PMNs was determined using either a Coulter Counter or a hemocytometer. […] Counts are expressed as the average number of PMNs that migrated into the lower compartment. […]

PMNs [6] = experiment: Exclusion of rhodamine-labeled polyethylene glycol (Rh-PEG) from zones of adhesion of PMNs; details: fMLP in combination with IL-8 or LTB4, fibrin
Protocol: Rh-PEG binds avidly to protein-coated surfaces, and can be detected easily by its fluorescence. Individual wells on glass microslides (Carlson Scientific, Peotone, Ill.) were coated with either fibrin, Matrigel or collagen IV in a manner similar to that for coating cell culture inserts except that 20 μl of the various solutions were used per well. 20 μl of PMNs (10^6 cells/ml in PBSG-HSA) were added to each well and PMNs were allowed to adhere for 15 mins at 37°. The cells were washed in PBS, fixed with 3.7% paraformaldehyde in PBS for 10 min, washed again with PBS, and further incubated with 10 kDa Rh-PEG at room temperature for 60 min. The preparation then was washed with PBS and immediately observed by phase and fluorescent microscopy at 400× magnification. Average values from three different experiments are reported as the percentage of PMNs that excluded Rh-PEG from zones of adherence between the cells and the underlying matrix.

PMNs [7] = experiment: PMN migration through fibrin gels with anti-integrin antibodies or synthetic peptides; details: PMNs incubated with antibody (2 μg/ml) or peptide (1 mg/ml); fMLP 10^−7M, 6 hrs
Protocol: Fibrin gels were formed on filters of cell culture inserts as described in Experimental Peocedures and fMLP (10^−7M) or LTB4 (10^−7M) was added to the medium in the lower chamber. FIG. 10A—10^6 PMNs were pre-incubated in medium containing antibodies against rat or human β1 integrins, or antibodies against the α5 subunit of human α5β1 integrin, or against the human β2 integrin complement receptor 3 (CR3), or against the human β2 integrin p150/95, or against human β3 integrins for 15 min at 4° C. PMNs were placed in the upper chamber of cell culture inserts in the same medium and the inserts were incubated for 6 hrs at 37° C., at which time the number of cells in the lower chamber was determined using a Coulter Counter. […] The mixture was added to the upper chamber of cell culture inserts and the inserts were incubated for 6 hrs at 37° C., at which time the number of cells in the lower chamber was counted as in FIG. 10A.
Fibrin gels: 1 Unit of thrombin (a gift from Dr. John Fenton, Albany Medical College, Albany, N.Y.), in 5 μl of PBS was added first to each insert. […] The mixture was incubated at 37° C. for 5 min to allow fibrin gel formation (determined by visual inspection). […] The fibrin gels formed were about 1 mm thick as measured under a dissecting microscope. […]

PMN or monocytes = experiment: Adhesion of PMN or monocytes to tenascin-impregnated Matrigel
monocytes [8] = experiment: Monocyte migration through collagen I coated inserts; details: tenascin added to collagen I
Protocol: as §4
Cell culture inserts containing polyethylene terephthalate filters, 8-μm pore size (Becton-Dickinson), were overlaid with 0.1 ml of Matrigel (20-25 μg protein/filter) (Collaborative Research, Bedford, Mass.), and incubated at room temperature until they dried. These Matrigel-coated filters were washed with phosphate buffered saline containing 1.0 mM Mg^2+ and 1.0 mM Ca^2+ (PBS). 0.1 ml of a PBS solution (pH 7.2) containing the indicated amount of purified chick brain tenascin was added to some of the inserts. The filters were incubated at room temperature until they dried. […]

[9] = added in combination in bottom compartment, 6 hr

CSCC[C@H](NC=O)C(=O)N[C@@H](CC(C)C)C(=O)N[C@@H](Cc1ccccc1)C(=O)O [fMLP, formyl-methionyl-leucyl-phenylalanine]
PMNs that migrated through Matrigel-coated inserts (PMNs [1]; Matrigel alone): ~10% | Effect of serum on PMN migration through fibrin gels in response to the chemoattractant (PMNs [2]; 20% human serum in upper and lower compartments): nor did the presence of serum promote | Effect on PMN migration through fibrin gels in response to IL-8 (PMNs [2]; [9]): reduced | Effect on PMN migration through fibrin gels in response to LTB4 (PMNs [2]; [9]): reduced | PMN migration through fibrin gels (in words) (PMNs [2]; chemoattractant in lower compartment, zymosan-activated human plasma 2-10%): not | PMN migration through gels of Matrigel or collagen IV (PMNs [3]): stimulated PMN migration | Cultured monocytes that migrated through Matrigel-coated inserts (monocytes [4]; Matrigel alone): ~15% | Freshly isolated human monocytes that migrated through Matrigel-coated inserts (monocytes [4]; Matrigel alone): About 20% | PMN migration through filters with adsorbed fibrinogen or fibronectin (PMNs [5]): promoted PMN migration | PMNs forming zones of adhesion that excluded 10 kDa Rh-PEG (PMNs [6]): about 50%

GRGDSP
PMN migration through fibrin gels in response to fMLP (PMNs [7]): migrated through fibrin gels

chick brain tenascin: tenascin purified from 14-day embryonic chick brains
Inhibition of chemoattractant-stimulated PMN migration (PMNs [1]): 65-80% | Effect on PMN migration through Matrigel in response to TNF, fMLP or LTB4 (PMNs [1]; tenascin added to Matrigel): significantly reduced | Effect on PMN that migrated across Matrigel in the absence of chemoattractant (PMNs [1]; tenascin added to Matrigel): further reduced | Inhibition of chemoattractant-stimulated monocyte migration (monocytes [4]): 65-80% | Amount causing half maximal inhibition of TNF-stimulated monocyte migration (monocytes [4]; amount added to Matrigel-coated insert, cultured monocytes, 24 h): about 0.75 μg | Effect on monocyte migration through Matrigel in response to TNF, fMLP or LTB4 (monocytes [4]; tenascin added to Matrigel): significantly reduced | Effect on monocytes that migrated in the absence of chemoattractant (monocytes [4]; tenascin added to Matrigel): no significant effect | Number of chemoattractant-stimulated PMN or monocytes adhered to tenascin-impregnated Matrigel over Matrigel alone (PMN or monocytes): no increase | Reduction of TNF- or LTB4-stimulated monocyte migration through collagen I coated inserts (monocytes [8]): at least 60%

human tenascin: tenascin obtained from cultured human glioma cells, from GIBCO-BRL
Inhibition of chemoattractant-stimulated PMN migration (PMNs [1]): at least 50% | Inhibition of chemoattractant-stimulated monocyte migration (monocytes [4]): at least 50%
